Laboratory results as given in ChEMBL document CHEMBL4177669 (Bioorg Med Chem Lett, 2017).
In brackets after ≈: the same amount, converted by molar mass.

What was measured:
[1] = Half life in CD-1 mouse at 3 mg/kg, iv; type: ADME, organism-based; details: in vivo
[2] = AUC in CD-1 mouse at 3 mg/kg, iv; type: ADME, organism-based; details: in vivo
[3] = Drug metabolism in rat hepatocytes assessed as acyl glucoronidation at 10 […] after 30 to 120 mins by LC-MS analysis; type: ADME, cell-based, Hepatocyte
[4] = Drug metabolism in human hepatocytes assessed as acyl glucoronidation at 10 […] after 30 to 120 mins by LC-MS analysis; type: ADME, cell-based, Hepatocyte
[5] = Clearance in CD-1 mouse at 3 mg/kg, iv; type: ADME, organism-based; details: in vivo
[6] = Oral bioavailability in CD-1 mouse at 10 mg/kg; type: ADME, organism-based; details: in vivo
[7] = Half life in CD-1 mouse at 10 mg/kg, po; type: ADME, organism-based; details: in vivo
[8] = Oral bioavailability in Wistar rat at 10 mg/kg; type: ADME, organism-based; details: in vivo
[9] = Clearance in CD-1 mouse at 1 mg/kg, iv; type: ADME, organism-based; details: in vivo
[10] = Cmax in Wistar rat at 10 mg/kg, po; type: ADME, organism-based; parameters: dose 10 mg/kg, route oral; details: in vivo
[11] = Oral bioavailability in cynomolgus monkey at 10 mg/kg; type: ADME, organism-based, Macaca fascicularis; details: in vivo
[12] = Half life in Wistar rat at 10 mg/kg, po; type: ADME, organism-based; details: in vivo
[13] = AUC in CD-1 mouse at 1 mg/kg, iv; type: ADME, organism-based; details: in vivo
[14] = Volume of distribution at steady state in Wistar rat at 3 mg/kg, iv; type: ADME, organism-based; details: in vivo, read-out: Vdss
[15] = Cmax in cynomolgus monkey at 10 mg/kg, po; type: ADME, organism-based, Macaca fascicularis; parameters: dose 10 mg/kg, route oral; details: in vivo
[16] = Half life in cynomolgus monkey at 3 mg/kg, iv; type: ADME, organism-based, Macaca fascicularis; details: in vivo
[17] = Half life in CD-1 mouse at 1 mg/kg, iv; type: ADME, organism-based; details: in vivo
[18] = AUC in Wistar rat at 10 mg/kg, po; type: ADME, organism-based; details: in vivo
[19] = Thermodynamic solubility of the compound; type: physicochemical; details: read-out: Therm_solubility
[20] = Half life in cynomolgus monkey at 10 mg/kg, po; type: ADME, organism-based, Macaca fascicularis; details: in vivo
[21] = Half life in Wistar rat at 3 mg/kg, iv; type: ADME, organism-based; details: in vivo
[22] = AUC in cynomolgus monkey at 3 mg/kg, iv; type: ADME, organism-based, Macaca fascicularis; details: in vivo
[23] = AUC in cynomolgus monkey at 10 mg/kg, po; type: ADME, organism-based, Macaca fascicularis; details: in vivo
[24] = Clearance in cynomolgus monkey at 3 mg/kg, iv; type: ADME, organism-based, Macaca fascicularis; details: in vivo
[25] = Volume of distribution at steady state in CD-1 mouse at 1 mg/kg, iv; type: ADME, organism-based; details: in vivo, read-out: Vdss
[26] = Volume of distribution at steady state in cynomolgus monkey at 3 mg/kg, iv; type: ADME, organism-based, Macaca fascicularis; details: in vivo, read-out: Vdss
[27] = Clearance in Wistar rat at 3 mg/kg, iv; type: ADME, organism-based; details: in vivo
[28] = AUC in Wistar rat at 3 mg/kg, iv; type: ADME, organism-based; details: in vivo
[29] = Cmax in CD-1 mouse at 10 mg/kg, po; type: ADME, organism-based; parameters: dose 10 mg/kg, route oral; details: in vivo
[30] = AUC in CD-1 mouse at 10 mg/kg, po; type: ADME, organism-based; details: in vivo
[31] = Drug metabolism in rat hepatocytes assessed as hydrolysis
[32] = Drug metabolism in rat liver microsomes assessed as N-dealkylation; type: ADME, microsome
[33] = Drug metabolism in rat hepatocytes assessed as oxidation

For `CC(CCOc1ccccc1CN(C)C(=O)c1ccc(-c2ccco2)cc1)CCC(=O)O` (stereo not drawn), the half-life [1] was 1.7 h, the AUC [2] was 11800 ng·h/mL and the Drug metabolism [3] was “Metabolite_Detected”. For the same compound, the Drug metabolism [4] was “Metabolite_Detected” and the clearance [5] was 4 mL/min/kg.

A half-life [1] of 2.3 h, a bioavailability [6] of 84% and a half-life [7] of 4.3 h were found for `C/C(=C\COc1ccccc1CN(C)C(=O)c1ccc(-c2ccco2)cc1)CCC(=O)O` in this work. For the same compound, the bioavailability [8] was 82%, the clearance [9] was 8.4 mL/min/kg and the Cmax [10] was 3800 ng/mL. It also gave a bioavailability [11] of 29%, a half-life [12] of 2.5 h and an AUC [13] of 1980 ng·h/mL. It also gave a Vd [14] of 0.9 L/kg, a Cmax [15] of 4190 ng/mL and an AUC [2] of 3300 ng·h/mL. For the same compound, the half-life [16] was 1.8 h, the half-life [17] was 5.8 h and the Drug metabolism [3] was “Metabolite_Detected”. It also gave an AUC [18] of 12500 ng·h/mL, a solubility thermodynamic [19] of 190 µM (≈ 82.4 µg/mL) and a half-life [20] of 1.1 h. For the same compound, the half-life [21] was 4.5 h, the AUC [22] was 6200 ng·h/mL and the AUC [23] was 6050 ng·h/mL. The clearance [24] was 8 mL/min/kg, the Vd [25] was 2.6 L/kg and the Drug metabolism [4] was “Metabolite_Detected”. It also gave a Vd [26] of 1.3 L/kg, a clearance [27] of 7.2 mL/min/kg and an AUC [28] of 4650 ng·h/mL. It also gave a Cmax [29] of 11100 ng/mL, a clearance [5] of 15 mL/min/kg and an AUC [30] of 16600 ng·h/mL.

In the case of `CC(CCCCOc1ccccc1CN(C)C(=O)c1ccc(-c2ccco2)cc1)C(=O)O` (stereo not drawn), the half-life [1] is reported as 2.8 h, the AUC [2] is reported as 11400 ng·h/mL and the Drug metabolism [3] is reported as “Metabolite_Detected”. For the same compound, the Drug metabolism [4] was “Metabolite_Detected” and the clearance [5] was 3 mL/min/kg.

For `C[C@H](CCCOc1ccccc1CN(C)C(=O)c1ccc(-c2ccco2)cc1)CC(=O)O`, the half-life [1] was 3.9 h, the AUC [2] was 77700 ng·h/mL and the Drug metabolism [3] was “Metabolite_Detected”. For the same compound, the Drug metabolism [4] was “Metabolite_Detected” and the clearance [5] was 0.3 mL/min/kg.

For `CN(Cc1ccccc1OCCCCCC(=O)O)C(=O)c1ccc(-c2ccco2)cc1`, the half-life [1] was 1.7 h, the AUC [2] was 1100 ng·h/mL and the Drug metabolism [3] was “Metabolite_Detected”. The Drug metabolism [4] was “Metabolite_Detected” and the clearance [5] was 44 mL/min/kg.

With `C[C@@H](CCCOc1ccccc1CN(C)C(=O)c1ccc(-c2ccco2)cc1)CC(=O)O` the half-life [1] was 2 h, the AUC [2] was 30800 ng·h/mL and the Drug metabolism [3] was “Metabolite_Detected”. For the same compound, the Drug metabolism [4] was “Metabolite_Detected” and the clearance [5] was 1.3 mL/min/kg.

With `CN(Cc1ccccc1OCCCCC(C)(C)C(=O)O)C(=O)c1ccc(-c2ccco2)cc1` the half-life [1] was 4.6 h, the AUC [2] was 48400 ng·h/mL and the Drug metabolism [3] was “Metabolite_Detected”. The Drug metabolism [4] was “Metabolite_Detected” and the clearance [5] was 1.3 mL/min/kg.

With `CN(Cc1ccccc1OCCC/C=C/C(=O)O)C(=O)c1ccc(-c2ccco2)cc1` the half-life [1] was 1.9 h, the AUC [2] was 750 ng·h/mL and the Drug metabolism [3] was “Metabolite_Detected”. The Drug metabolism [4] was “Metabolite_Detected” and the clearance [5] was 67 mL/min/kg.

For `C/C(=C\CCCOc1ccccc1CN(C)C(=O)c1ccc(-c2ccco2)cc1)C(=O)O`, the half-life [1] was 1.2 h, the AUC [2] was 1300 ng·h/mL and the Drug metabolism [3] was “Metabolite_Detected”. The Drug metabolism [4] was “Metabolite_Detected” and the clearance [5] was 4 mL/min/kg.

For `C/C(=C\C(=O)O)CCCOc1ccccc1CN(C)C(=O)c1ccc(-c2ccco2)cc1`, the half-life [1] was 1.6 h, the AUC [2] was 4700 ng·h/mL and the Drug metabolism [3] was “Metabolite_Detected”. For the same compound, the Drug metabolism [4] was “Metabolite_Detected” and the clearance [5] was 11 mL/min/kg.

In the case of `O=C(O)CCCCCOc1ccccc1CN(C(=O)c1ccc(-c2ccco2)cc1)C1CC1`, the Drug metabolism [31] is reported as “Metabolite_Detected”, the Drug metabolism [32] is reported as “Metabolite_Detected” and the Drug metabolism [33] is reported as “Metabolite_Detected”.

In the case of `CN(Cc1ccccc1OCCC[C@@H]1C[C@@H]1C(=O)O)C(=O)c1ccc(-c2ccco2)cc1` (racemic), the half-life [1] is reported as 2.7 h, the AUC [2] is reported as 30100 ng·h/mL and the Drug metabolism [3] is reported as “Metabolite_Detected”. The Drug metabolism [4] was “Metabolite_Detected” and the clearance [5] was 1.7 mL/min/kg.

With `CN(Cc1ccccc1OCCC[C@@H]1C[C@H]1C(=O)O)C(=O)c1ccc(-c2ccco2)cc1` (racemic) the half-life [1] was 3.5 h, the AUC [2] was 40500 ng·h/mL and the Drug metabolism [3] was “Metabolite_Detected”. The Drug metabolism [4] was “Metabolite_Detected” and the clearance [5] was 0.6 mL/min/kg.
